The results in this text go back to US11447504B2, “Macrocyclic chlorine substituted indole derivatives” (Bayer Aktiengesellschaft, priority 2017, dated 2022).

Counter-ions that a name gives are not always drawn. Like-named read-outs stand apart in the source and are kept apart here.

For data set [1], the system named is AMO-1. The data set is described as follows: Antiproliferation assay 7, AMO-1. In kind it is cell-based. The settings on record: AMO-1 cells, CellTiter-Glo, read-out: Antiproli AMO-1 IC50 median. The method, boiled down:
(§1)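 Luminescent ATP-based viability (CellTiter-Glo) measured after 72 hours of compound treatment at 37° C, alongside a time-zero plate read on the day of plating.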
A general note: ATP-based viability assays read luminescence as a measure of living cells.

For data set [2], the target named is T1, MCL-1 (Homo sapiens (Human), UniProt Q07820, K194A/K197A/R201A). The data set can be described thus: Protein-protein interaction assay MCL-1/Noxa BH3 peptide (MCL-1 Assay, TR-FRET). In kind it is binding. The note with it: read-out: MCL-1 Assay IC50 (median).
Data set [3] deals with SUDHL5. The data set can be described thus: Induction of caspase-3/7 activity (Assay 4), SUDHL5. The note with it: SUDHL5 cells. Format: cell-based. In short, it runs like this: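 DLBCL cells treated with compounds for 3 hours at 37° C. Caspase-3/7 activity measured by Caspase-Glo 3/7 luminescence, with medium-only background subtracted.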
Data set [4] relates to SUDHL10. The data set is described as follows: Induction of caspase-3/7 activity (Assay 4), SUDHL10. Format: cell-based. The note with it: SUDHL10 cells. In short, it runs like this: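 SUDHL10 DLBCL cells treated with compounds for 3 hours at 37 °C in a humidified incubator. Caspase-3/7 activity read with Caspase-Glo 3/7 luminescent reagent. Medium-only background subtracted from all values.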

Data set [5] has as its system HMC-1-8. The data set can be described thus: Antiproliferation assay 7, HMC-1-8. Format: cell-based. The note with it: HMC-1-8 cells, CellTiter-Glo, read-out: Antiproli HMC-1-8 IC50 median. The method, boiled down:
as §1

Data set [6] concerns the target T1, MCL-1. The data set can be described thus: Protein-compound interaction assay (SPR assay 8). Format: binding. The note with it: immobilized MBP-MCL-1, 25° C.; for Kd: read-out: KD (geo mean). The source says:
Assay 8 Protein-Compound Interaction Assay (SPR Assay)
The ability of the compounds described in this invention to bind to MCL-1 may be determined using surface plasmon resonance (SPR). This allows for the quantification of binding in terms of the equilibrium dissociation constant (KD [M]), as well as association and dissociation rate constants (kon [1/M 1/s] and koff [1/s], respectively). The measurements may be performed using Biacore® T200 or Biacore® S200 instruments (GE Healthcare).
MBP-MCL-1 was diluted in 1×PBS-P+ (GE Healthcare) and injected on the activated chip surface. Subsequently, a solution of 1 M ethanolamine-HCl (GE Healthcare) was injected to block unreacted groups, resulting in approximately 400-2500 response units (RU) of immobilized protein. A reference surface was generated by treatment with NHS-EDC and ethanolamine-HCl.
The double-referenced sensorgrams were fit to a simple reversible Langmuir 1:1 reaction mechanism as implemented in the Biacore® T200 and S200 evaluation software (T200 evaluation software version 2.0 and S200 evaluation software version 1.0, GE Healthcare).

Data set [7] deals with SUDHL10. The data set can be described thus: Induction of cytotoxicity (Assay 6), SUDHL10.
Data set [8] has as its system SUDHL5. The data set is described as follows: Induction of cytotoxicity (Assay 6), SUDHL5.
Method: Assay 6 Induction of Cytotoxicity Upon Treatment of Cells with Selected Compounds
Therefore, cytotoxicity assays were run in parallel in SUDHL5 and SUDHL10 cells.
The different cell lines were plated in culture medium (RPMI 1640 [GIBCO #22400-089]supplemented with 10% Fetal Bovine Serum) at a density of 3,300 cells in 30 μL/well in a sterile, solid black, flat bottom, polystyrene, TC-treated 384-well microplate (Corning #3571) using Multidrop Combi Reagent Dispenser. As a control, medium without cells was also added to the plate. Cells were incubated in a humidified incubator at 37° C. overnight. […] Rim wells were excluded. The cells were incubated for 5 hours in a humidified incubator at 37° C. After this incubation, 30 μL of CellTiter-Glo® Luminescent Cell Viability reagent (Promega, G7573) was added to each well using the Multidrop Combi Reagent Dispenser, followed by 15 minutes incubation on a shaker at room temperature. Finally, luminescence was read at 0.1 ms, with a gain of 3000 using the PHERAstar FS microplate reader (BMG Labtech).
Data set [9] deals with SUDHL10. The data set can be described thus: Antiproliferation assay 7, SUDHL10. Format: cell-based. The settings on record: Homo sapiens, SU-DHL10, 72 h, SUDHL10 cells, CellTiter-Glo, read-out: Antiproli SUDHL10 IC50 (median). How it is done:
(§2) Assessment of the Anti-Proliferative Effect of Compounds in Different Cell Lines
(§3) The impact of compounds on the proliferation of different cell lines was assessed using the CellTiter-Glo® Luminescent Cell Viability reagent from Promega (G7573).
(§4) In parallel, cells were plated in a reference (day 0) plate for time zero determination.
(§5) Rim wells were excluded. The cells were incubated for 72 hours in a humidified incubator at 37° C. The day 0 plate was measured by adding 30 μL/well of CTG solution (CellTiter-Glo® Luminescent Cell Viability reagent, Promega G7573) to time zero wells in the reference plate followed by a 10 minutes incubation and luminescence reading at 0.1 ms. using the PHERAstar FS microplate reader (BMG Labtech).
(§6) After 72 hours incubation, the treated plates were measured in the same way as the day 0 plate mentioned above.

Data set [10] deals with MV-4-11. The data set can be described thus: Antiproliferation assay 7, MV-4-11. The note with it: MV-4-11 cells, CellTiter-Glo, read-out: Antiproli MV-4-11 IC50 median. Format: cell-based. In short, it runs like this:
as §1

Data set [11] relates to SUDHL5. The data set is described as follows: Antiproliferation assay 7, SUDHL5. Format: cell-based. The note with it: SUDHL5 cells, CellTiter-Glo, read-out: Antiproli SUDHL5 IC50 (median). The method, boiled down: as §1
Data set [12] has as its system SK-BR-3. The data set can be described thus: Antiproliferation assay 7, SK-BR-3. The settings on record: Homo sapiens; SK-BR-3 cells, 72 hours, CellTiter-Glo; read-out: Antiproli SK-BR-3 IC50 median. In kind it is cell-based. On the procedure:
as §2, §3, §4, §5, §6

Setting [13] is: Homo sapiens, SU-DHL-5, 3 h, Caspase-Glo 3/7, read-out: Caspase SUDHL5 EC50 (median).
The mark [14] stands for this setting: 3 hours, Caspase-Glo 3/7, read-out: Caspase SUDHL10 EC50 (median).
[15] abbreviates: read-out: Cytotox SUDHL10 IC50 (median), SUDHL10 cells, 5 hours, CellTiter-Glo.
Setting [16] is: read-out: Cytotox SUDHL5 IC50 (median), SUDHL5 cells, 5 hours, CellTiter-Glo.
The mark [17] stands for this setting: 3 hours, Caspase-Glo 3/7, read-out: Caspase SUDHL5 EC50 (median).
Where [18] appears, read: Homo sapiens, SU-DHL10, 3 h, Caspase-Glo 3/7, read-out: Caspase SUDHL10 EC50 (median).
Where [19] appears, read: Homo sapiens, SU-DHL10, 5 h, read-out: Cytotox SUDHL10 IC50 (median), SUDHL10 cells, 5 hours, CellTiter-Glo.
The mark [20] stands for this setting: Homo sapiens, SU-DHL-5, 5 h, read-out: Cytotox SUDHL5 IC50 (median), SUDHL5 cells, 5 hours, CellTiter-Glo.

T1 sequence (Q07820 whole entry K194A/K197A/R201A, looked up): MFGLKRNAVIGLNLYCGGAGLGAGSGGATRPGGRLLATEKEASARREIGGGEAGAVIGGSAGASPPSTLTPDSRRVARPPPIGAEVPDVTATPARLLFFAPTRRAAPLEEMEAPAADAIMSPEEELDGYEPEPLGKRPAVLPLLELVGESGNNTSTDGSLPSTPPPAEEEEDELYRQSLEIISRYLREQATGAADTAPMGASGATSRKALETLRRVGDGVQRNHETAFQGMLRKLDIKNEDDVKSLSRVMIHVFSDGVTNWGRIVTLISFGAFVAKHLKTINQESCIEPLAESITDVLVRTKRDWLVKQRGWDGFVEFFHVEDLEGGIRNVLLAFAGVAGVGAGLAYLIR

As usually defined, the IC50 is the midpoint of a concentration-inhibition curve. A word on the EC50: it is the concentration at which the effect is half-maximal. Usually Kd stands for a measure of binding affinity in units of concentration. With `Cc1c2c(nn1C)COCC1CC1Cn1c(C(=O)O)c(CCCOc3cccc4ccccc34)c3ccc(Cl)c-2c31` (single isomer, unassigned; stereoisomer 1) [Example 65, (9aS,10aR or 9aR, 10aS)-3-chloro-4,5-dimethyl-14-{3-[(naphthalen-1-yl)oxy]propyl}-5,7,9a, 10,10a, 11-hexahydro-9H-cyclopropa[3,4]pyrazolo[4′,3′:9,10][1,6]oxazacycloundecino-[8,7,6-hi]indole-13-carboxylic Acid—Stereoisomer 1], the IC50 in data set [1] (Homo sapiens, AMO1, 72 h) turned out to be 1420 nM; in data set [2], 0.92 nM; in data set [5] (72 hours) it was 7580 nM; in data set [7] (setting [15]) it was 400 nM; in [8] (setting [16]) it was 410 nM. Moreover, the results for the EC50 in data set [3] (setting [13]) and in data set [4] (setting [14]) were 410 nM and 570 nM, respectively. For the same molecule, the Kd in data set [6] was 3.6 nM.
Take `CCc1c2c(nn1C)COCCCCn1c(C(=O)O)c(CCCOc3cccc4ccccc34)c3ccc(Cl)c-2c31` (single isomer, unassigned; enantiomer 1) [Example 20, 4-chloro-3-ethyl-2-methyl-7-[3-(naphthalen-1-yloxy)propyl]-2,10,11,12,13,15-hexahydropyrazolo[4′,3′:9,10][1,6]oxazacycloundecino[8,7,6-hi]indole-8-carboxylic Acid (Enantiomer 1)]: the IC50 is 874 nM in [1] (Homo sapiens, AMO1, 72 h); 450 nM in data set [9]; 907 nM in data set [10] (72 hours); 220 nM in data set [11] (72 hours); 2520 nM in data set [12]; 2470 nM in data set [5] (72 h). Also, in [8] (setting [16]), the IC50 turned out to be 170 nM. In data set [3] (setting [17]), the EC50 was 140 nM.
On to `Cc1c2c(nn1C)CN(C)CCCCn1c(C(=O)O)c(CCCOc3cccc4cc(F)ccc34)c3ccc(Cl)c-2c31` (single isomer, unassigned; enantiomer 1) [Example 31, (+)-4-chloro-7-{3-[(6-fluoronaphthalen-1-yl)oxy]propyl}-2,3,14-trimethyl-10,11,12,13,14,15-hexahydro-2H-pyrazolo[3′,4′:8,9][1,6]diazacycloundecino[10,11,1-hi]indole-8-carboxylic acid-N-ethylethanamine Salt (Enantiomer 1)], for which the 50% inhibitory concentration (IC50) in data set [1] (72 hours) came out at 174 nM; in data set [2], 0.71 nM; in data set [10] (72 hours) it was 275 nM; in data set [11] (72 hours), 53 nM; in data set [5] (72 hours) it was 1920 nM; in data set [7] (setting [15]) it was 82 nM. The concentration for half-maximal inhibition (IC50) in data set [8] (setting [16]) was 53 nM. The EC50 in data set [3] (setting [17]) turned out to be 55 nM; in data set [4] (setting [14]), 65 nM. For the same molecule, in data set [6], the Kd amounted to 0.43 nM.
Broadly, the koff is the rate constant with which the complex falls apart. For orientation: kon means the second-order rate constant of association. In the case of `Cc1c2c(nn1C)N(C)CCCCCn1c(C(=O)O)c(CCCOc3cccc4ccccc34)c3ccc(Cl)c-2c31` (single isomer, unassigned) [Example 72, (+)-4-chloro-2,3,15-trimethyl-7-{3-[(naphthalen-1-yl)oxy]propyl}-10,11,12,13,14,15-hexahydro-2H-pyrazolo[4′,3′:4,5][1,6]diazacycloundecino[3,2,1-hi]indole-8-carboxylic acid], the half-inhibitory concentration (IC50) came out at 1700 nM in data set [1] (72 hours); 0.96 nM in data set [2]; 1200 nM in data set [11] (Homo sapiens, SU-DHL-5, 72 h); 19000 nM in [5] (72 h); 1600 nM in data set [7] (setting [15]); 880 nM in data set [8] (setting [16]). Moreover, the EC50 in [3] (setting [17]) amounted to 700 nM; in data set [4] (setting [14]) it was 1900 nM. In addition, the Kd in [6] stood at 11 nM. In addition, the off-rate constant (koff) in [6] (read-out: koff (geo mean)) worked out at 0.016 s⁻¹. Besides, the kon in data set [6] (read-out: kon (geo mean)) came out at 1.4e+06 M⁻¹ s⁻¹.
In the case of `CCc1c2c(nn1C)CN(C)CCCCn1c(C(=O)O)c(CCCOc3cccc4ccccc34)c3ccc(Cl)c-2c31` (racemic) [Example 22, (rac)-4-chloro-3-ethyl-2,14-dimethyl-7-[3-(naphthalen-1-yloxy)propyl]-10,11,12,13,14,15-hexahydro-2H-pyrazolo[3′,4′:8,9][1,6]diazacycloundecino[10,11,1-hi]indole-8-carboxylic Acid], the IC50 in data set [1] (Homo sapiens, AMO1, 72 h) is 659 nM; in data set [10] (Homo sapiens, MV4-11, 72 h), 692 nM; in data set [11] (Homo sapiens, SU-DHL-5, 72 h), 280 nM; in data set [12], 894 nM; in data set [7] (setting [19]) it was 400 nM; in data set [8] (setting [20]), 160 nM. Moreover, the results for the EC50 in data set [3] (setting [13]) and in data set [4] (setting [18]) were 140 nM and 270 nM, respectively.
Take `Cc1c2c(nn1CCCN1CCN(C)CC1)COCCCCn1c(C(=O)O)c(CCCOc3cccc4ccccc34)c3ccc(Cl)c-2c31` (single isomer, unassigned; enantiomer 1) [Example 49, (+)-4-chloro-3-methyl-2-[3-(4-methylpiperazin-1-yl)propyl]-7-{3-[(naphthalen-1-yl)oxy]propyl}-2,10,11,12,13,15-hexahydropyrazolo[4′,3′:9,10][1,6]oxazacycloundecino[8,7,6-hi]indole-8-carboxylic Acid (Enantiomer 1)]: the IC50 in data set [1] (72 hours) was determined as 1340 nM; in data set [2], 0.75 nM; in [11] (72 hours) it was 480 nM; in data set [5] (72 hours), 3060 nM; in data set [7] (setting [15]), 620 nM; in data set [8] (setting [16]) it was 660 nM. The values for the EC50 in data set [3] (setting [17]) and in [4] (setting [14]) were 520 nM and 450 nM, respectively. For the same molecule, the Kd in data set [6] is 1.7 nM.
In the case of `Cc1c2c(nn1C)CN(C)CCCCn1c(C(=O)O)c(CCCOc3cccc4ccccc34)c3ccc(Cl)c-2c31` (racemic) [Example 11, (rac)-4-chloro-2,3,14-trimethyl-7-[3-(naphthalen-1-yloxy)propyl]-10,11,12,13,14,15-hexahydro-2H-pyrazolo[3′,4′:8,9][1,6]diazacycloundecino[10,11,1-hi]indole-8-carboxylic Acid], the IC50 came to 728 nM in [1] (Homo sapiens, AMO1, 72 h); 442 nM in [10] (Homo sapiens, MV4-11, 72 h); 300 nM in data set [11] (Homo sapiens, SU-DHL-5, 72 h); 1480 nM in data set [12]; 4190 nM in data set [5] (72 h); 370 nM in data set [7] (setting [19]). Also, the IC50 in data set [8] (setting [20]) came out at 180 nM. Also, the EC50 in [3] (setting [13]) was found to be 140 nM; in data set [4] (setting [18]), 260 nM.
